Assay results: paper PMC9739180, “Discovery of a Flavonoid FM04 as a Potent Inhibitor to Reverse P-Glycoprotein-Mediated Drug Resistance in Xenografts and Improve Oral Bioavailability of Paclitaxel” (International Journal of Molecular Sciences, 2022)

Assay: In vivo monitoring of FD18 and its metabolites in plasma after I.V. FD18
Set-up: species or system SD rats
Conditions: after FD18 5 mg/kg I.V.
Experimental: Figure 3 Proposed metabolism pathway of FD18 and its metabolites formed in vivo. (A) metabolism study of FD18 was conducted on human liver microsomes (HLM) and rat liver microsomes (RLM) in vitro. Chemical structure of the 3 metabolites was predicted by LC/QTOF-MS/MS and confirmed by the synthetic compounds (Figure 2E–J). The pathways for biotransformation of FD18 into FM04 was proposed. (B) plasma concentration profile of FD18 and the in vivo formation of metabolites M1, M2 and M3. After I.V. injection of FD18 (5 mg/kg) into […], plasma was collected at 10, 30, 60, 120, 240, 420 and 600 min, respectively. The concentration of FD18 at each time point was determined by UPLC-MS/MS. Its plasma concentration was further quantified with peak area ratio of FD18 against D7-18. […] In vivo formation of metabolites M1, M2 and M3 were monitored and quantified by UPLC-MS/MS with corresponding calibration curve of 14a, FM04 and FM327. Pharmacokinetic parameter AUC was calculated by the pharmacokinetic software-Summit® PK solutions 2.0 (Summit Research Service, Ashland, Wilmington, DE, USA).
FD18 stock solution was freshly prepared in 33% Cremophor EL, 33% ethanol and 33% saline at a concentration of 9.5 mg/mL. FD18 stock solution was then diluted with saline to form a 4 mg/mL working solution for animal injection. SD rats were intravenously (I.V.) administered with FD18 at 5 mg/kg (n = 3). Blood samples (approx. 300 μL) were taken via jugular vein at 10, 30, 60, 120, 240 and 420 min post-administration. Blood samples were centrifuged at 16,100× g for 10 min to obtain plasma. Plasma samples (50 µL) were spiked with 15 μL of internal standard (IS) (D7-NBn, 10 μg/mL). Two hundred microliter of methanol was added for protein precipitation. Samples were centrifuged at 16,100× g for 10 min prior to filtering by 0.22 μm syringe filter for UPLC-MSMS analysis.
The UPLC-MS/MS system consists of an Agilent 1260 infinity UPLC interfaced with a triple quadrupole mass spectrometer (Agilent 6460) equipped with an electrospray ionization source in positive mode. Zorbax Eclipse XDB-C8 (4.6 × 150 mm, 5 µM) was used for separation. The mobile phase for chromatographic separation consisted of methanol + 0.1% formic acid (solvent B) and Milli-Q water + 0.1% formic acid (solvent A) with gradient elution of 30% solvent B to 100% solvent B in 5 min. The elution condition was allowed for equilibrium from the 7th min onward. The analysis time for each injection was 13 min. The flow rate was 0.4 mL/min. The synthetic compound D7-NBn, the deuterated benzyl form of FD18, was used as the internal standard (IS) for the quantification of the three metabolites. Multiple reaction monitoring (MRM) was set to monitor the transitions of D7-NBn [M+H]^+, FD18 [M+H]^+, M1 [M+H]^+, M2 [M+H]^+ and M3 [M+H]^+ at 731.01 > 98.1 m/z, 724.01 > 91.1 m/z, 634.01 > 114 m/z, 416.01 > 91.1 m/z and 327.01 > 239 m/z, respectively. The coefficient of determination (R^2) for 14a, FM04 and FM327 were above 0.99. The dynamic range for the metabolites in the current setting is 78 ng/mL to 2.44 ng/mL.

Structure (SMILES): O=c1cc(-c2ccc(OCCOCCNCc3ccccc3)cc2)oc2ccccc12 [FM04, 2-(4-(2-(2-(benzylamino)ethoxy)ethoxy)phenyl)-4H-chromen-4-one]
- AUC(0-t) (Sprague-Dawley, rat, iv): 44.5 ng·h/mL
- Cmax (Sprague-Dawley, rat, iv): 11 ng/mL
- Tmax (Sprague-Dawley, rat, iv): 1 h
- Normalized AUC (systemic exposure relative to FD18) (listed as M2): 7%
